Measurements published in ChEMBL document CHEMBL5233248, “Resveratrol - A comprehensive review of recent advances in anticancer drug design and development” (Eur J Med Chem, 2020).
Where “and” joins values, the source holds several entries; their conditions need not be identical. Equal values may be shown once. One block for each compound: values may come before it.

Legend:
A549 [1] = test: Potency index, ratio of test compound IC50 to Resveratrol IC50 for antiproliferative activity against human A549 cells; assay type: functional
HeLa [2] = test: Anticancer activity against human HeLa cells assessed as cell growth inhibition measured after 72 hrs by MTT assay; assay type: functional, cell-based; conditions: read-out: IC50
A549 [3] = test: Anticancer activity against human A549 cells assessed as cell growth inhibition measured after 72 hrs by MTT assay; assay type: functional, cell-based
[4] = Anticancer activity against Lung adenocarcinoma cell line assessed as cell growth inhibition measured after 72 hrs by MTT assay; assay type: functional, cell-based
HepG2 [5] = test: Anticancer activity against human HepG2 cells; assay type: functional, cell-based
HeLa [6] = test: Anticancer activity against human HeLa cells; assay type: functional, cell-based
A549 [7] = test: Anticancer activity against human A549 cells; assay type: functional, cell-based
MCF-12A = test: Anticancer activity against human MCF-12A cells assessed as reduction of cell viability incubated for 48 hrs by MTT assay; assay type: functional, cell-based
HL-60 = test: Anticancer activity against human HL-60 cells assessed as cell growth inhibition incubated for 48 hrs by MTT assay; assay type: functional, cell-based; conditions: HL-60, 48 h
SK-OV-3 [8] = test: Anticancer activity against human SK-OV-3 cells assessed as cell growth inhibition incubated for 24 hrs […] by MTT assay; assay type: functional, cell-based; conditions: SK-OV-3, 24 h
PANC-1 = test: Anticancer activity against human PANC-1 cells assessed as cell growth inhibition by CyQuant assay; assay type: functional, cell-based
HepG2 [9] = test: Anticancer activity against human HepG2 cells assessed as cell growth inhibition incubated for 3 days by MTT assay; assay type: functional, cell-based; conditions: HepG2, 72 h
MCF7 [10] = test: Anticancer activity against human MCF7 cells assessed as cell growth inhibition incubated for 3 days by MTT assay; assay type: functional, cell-based; conditions: MCF7, 72 h
MCF7 [11] = test: cells; conditions: Homo sapiens, MCF7, 48 h
Description: Anticancer activity against human MCF7 cells assessed as cell growth inhibition incubated for 48 hrs in presence of Curcumin by MTS assay

MDA-MB-231 [12] = test: Anticancer activity against human MDA-MB-231 cells assessed as cell growth inhibition by CyQuant assay; assay type: functional, cell-based
A-431 = test: Anticancer activity against human A-431 cells assessed as reduction of cell viability incubated for 48 hrs by MTT assay; assay type: functional, cell-based; conditions: A-431, 48 h
SK-BR-3 = test: Anticancer activity against human SK-BR-3 cells assessed as cell growth inhibition incubated for 24 hrs by MTT assay; assay type: functional, cell-based; conditions: SK-BR-3, 24 h
[13] = Anticancer activity against human Peritoneal mesothelial cells assessed as cell growth inhibition incubated for 24 hrs […] by MTT assay; assay type: functional, cell-based
SK-OV-3 [14] = test: Anticancer activity against human SK-OV-3 assessed as cell growth inhibition incubated for 72 hrs by MTT assay; assay type: functional, cell-based; conditions: SK-OV-3, 72 h
Renal cancer cell line = test: Growth inhibition of human Renal cancer cell line; assay type: functional
HT-29 [15] = test: Anticancer activity against human HT-29 cells assessed as cell growth inhibition incubated for 3 days by MTT assay; assay type: functional, cell-based; conditions: HT-29, 72 h
Caco-2 = test: cells; conditions: Homo sapiens, Caco-2, 48 h
Description: Anti cancer activity against human Caco-2 cell assessed as cell growth inhibition incubated for 48 hrs by Brdu assay

HaCaT = test: Anticancer activity against human HaCaT cells assessed as reduction of cell viability incubated for 48 hrs by MTT assay; assay type: functional, cell-based
MCF7 [16] = test: Anticancer activity against human MCF7 cells assessed as reduction of cell viability incubated for 48 hrs by MTT assay; assay type: functional, cell-based; conditions: MCF7, 48 h
MCF7 [17] = test: Anticancer activity against human MCF7 cells assessed as cell growth inhibition by CyQuant assay; assay type: functional, cell-based
[18] = Anticancer activity against human AZ-AHR cells assessed as cell growth inhibition incubate for 24 hrs by MTT assay; assay type: functional, cell-based
HT-29 [19] = test: Anticancer activity against human HT-29 cells assessed as cell growth inhibition incubated for 24 hrs by MTT assay; assay type: functional, cell-based; conditions: Homo sapiens, HT-29, 24 h
ASPC1 = test: Anticancer activity against human ASPC1 cells assessed as cell growth inhibition incubated for 72 hrs by MTT assay; assay type: functional, cell-based; conditions: ASPC1, 72 h
[20] = Cytotoxicity activity against human CCD-1059Sk cells assessed as cell growth inhibition incubated for 48 hrs by MTS assay; assay type: toxicity, cell-based
[21] = Growth inhibition of human leukaemia cell line; assay type: functional
HepG2 [22] = test: Anticancer activity against human HepG2 cells assessed as cell growth inhibition incubated for 24 hrs by MTT assay; assay type: functional, cell-based; conditions: HepG2, 24 h
HCT-116 [23] = test: Anticancer activity against human HCT-116 cells assessed as cell growth inhibition; assay type: functional, cell-based
MCF7 [24] = test: Anticancer activity against human MCF7 cells assessed as cell growth inhibition incubated for 24 hrs by MTT assay; assay type: functional, cell-based; conditions: MCF7, 24 h
OVCAR-3 = test: Anticancer activity against human OVCAR-3 cells assessed as cell growth inhibition incubated for 24 hrs […] by MTT assay; assay type: functional, cell-based; conditions: OVCAR-3, 24 h
MCF7 [25] = test: Anticancer activity against human MCF7 cells assessed as cell growth inhibition incubated for 48 hrs by MTS assay; assay type: functional, cell-based; conditions: MCF7, 48 h
HepG2 [26] = test: cells; conditions: Homo sapiens, HepG2, 48 h
Description: Anti cancer activity against human HepG2 cell assessed as cell growth inhibition incubated for 48 hrs by Brdu assay

U-251 = test: Anticancer activity against human U-251MG cells assessed as cell growth inhibition by CyQuant assay; assay type: functional, cell-based
CYP1A = CYP1A (Homo sapiens, UniProt P04798+P05177); test: Inhibtion of CYP1A (unknown origin); assay type: ADME, protein assay
[27] = Anticancer activity against human HOSE cells assessed as cell growth inhibition incubated for 24 hrs […] by MTT assay; assay type: functional, cell-based
[28] = Cytotoxicity activity against human CCD-1059Sk cells assessed as cell growth inhibition incubated for 48 hrs in presence of Curcumin by MTS assay; assay type: toxicity, cell-based
[29] = Anticancer activity against human Peritoneal mesothelial cells assessed as cell growth inhibition by LDH release assay; assay type: functional, cell-based
Capan-2 = test: Anticancer activity against human Capan-2 cells assessed as cell growth inhibition incubated for 72 hrs by MTT assay; assay type: functional, cell-based; conditions: Capan-2, 72 h
A2780 [30] = test: Anticancer activity against human A2780 cells assessed as cell growth inhibition by LDH release assay; assay type: functional, cell-based
HCT-116 [31] = test: Anticancer activity against human HCT-116 cells assessed as cell growth inhibition incubated for 5 days by SRB assay; assay type: functional, cell-based; conditions: HCT-116, 120 h
[32] = Anticancer activity against human HOSE cells assessed as cell growth inhibition by LDH release assay; assay type: functional, cell-based
[33] = Cytotoxicity against mouse NIH3T3 cells assessed as cell growth inhibition by CyQuant assay; assay type: toxicity, cell-based
HT-29 [34] = test: cells; conditions: Homo sapiens, HT-29, 48 h
Description: Anti cancer activity against human HT-29 cell assessed as cell growth inhibition incubated for 48 hrs by Brdu assay

Ishikawa = test: cells; conditions: Homo sapiens
Description: Anti-tumor activity against human ishikawa cells assessed as anti-estrogenic potential

HeLa [35] = test: Anticancer activity against human HeLa cells assessed as cell growth inhibition incubated for 48 hrs by MTT assay; assay type: functional, cell-based
HeLa [36] = test: Anticancer activity against human HeLa cells assessed as cell growth inhibition; assay type: functional, cell-based
MDA-MB-231 [37] = test: Anticancer activity against human MDA-MB-231 cells assessed as reduction in cell viability measured after 48 hrs at 150 uM by MTT assay relative to control; assay type: functional
HEK293 = test: Anticancer activity against human HEK293 cells assessed as cell growth inhibition incubated for 3 days by MTT assay; assay type: functional, cell-based; conditions: HEK293, 72 h
MDA-MB-231 [38] = test: Anticancer activity against human MDA-MB-231 cells assessed as cell growth inhibition incubated for 24 hrs by MTT assay; assay type: functional, cell-based; conditions: MDA-MB-231, 24 h
[39] = Cytotoxicity against human MCF-10A cells assessed as cell growth inhibition incubated for 24 hrs by MTT assay; assay type: toxicity, cell-based
BXPC-3 = test: Anticancer activity against human BXPC-3 cells assessed as cell growth inhibition incubated for 72 hrs by MTT assay; assay type: functional, cell-based; conditions: BXPC-3, 72 h
A2780 [40] = test: Anticancer activity against human A2780 cells assessed as cell growth inhibition incubated for 24 hrs […] by MTT assay; assay type: functional, cell-based; conditions: A2780, 24 h

IC50 (HeLa [2]; Homo sapiens, HeLa, 72 h): 8.16 µM
IC50 (A549 [3]; Homo sapiens, A549, 72 h): 4.38 µM
Compound: O=S(=O)(Oc1cc(O)cc(/C=C/c2ccc(O)cc2)c1)c1ccccc1
Ratio IC50 (A549 [1]): 15
IC50 ([4]; Lung adenocarcinoma cell line, 72 h): 10.2 µM

IC50 (HepG2 [5]): 7.49 µM
IC50 (HeLa [6]): 4.79 µM
IC50 (A549 [7]): 3.77 µM
Compound: COc1ccc(/C(=C/c2cc(C(F)(F)F)ccc2Cl)C(=O)O)cc1

IC50 (HL-60): 64.1 µM
IC50 (SK-OV-3 [8]): 380 µM
IC50 (PANC-1): 70 µM
IC50 (HepG2 [9]): 355 µM
IC50 (MCF7 [10]): 127 µM
IC50 (MCF7 [11]): 61.7 µM
IC50 (MDA-MB-231 [12]): 40 µM
IC50 (A-431): 49.4 µM
IC50 (SK-BR-3): 110 µM
IC50 (SK-OV-3 [14]): 48 µM
GI50 (Renal cancer cell line): 15.9 µM
IC50 (HT-29 [15]): 70 µM
IC50 (Caco-2): 190 µM
IC50 (MCF7 [16]): 24.6 µM
IC50 (MCF7 [17]): 68.3 µM
IC50 (HeLa [2]; hela): 98.2 µM and 10.5 µM
IC50 (HT-29 [19]): 130 µM
IC50 (ASPC1): 25 µM
IC50 (HepG2 [22]): 54.9 µM
IC50 (HCT-116 [23]): 19.4 µM
IC50 (MCF7 [24]): 88.2 µM
IC50 (OVCAR-3): 480 µM
IC50 (MCF7 [25]): 40.5 µM
IC50 (HepG2 [26]): 111 µM
IC50 (U-251): > 50 µM
IC50 (CYP1A): 0.23 µM
IC50 (A2780 [30]): 65 µM
IC50 (HCT-116 [31]): 31 µM
IC50 (HT-29 [34]): 1120 µM
IC50 (Ishikawa): 3.4 µM
IC50 (HeLa [35]): 152 µM
IC50 (A549 [3]; a549): 66.2 µM and 10.5 µM
IC50 (HeLa [36]): 137 µM
IC50 (MDA-MB-231 [38]): 90.6 µM
IC50 (BXPC-3): 28 µM
IC50 (A2780 [40]): 48 µM
Compound: Oc1ccc(/C=C/c2cc(O)cc(O)c2)cc1 [RESVERATROL]
IC50 (MCF-12A): 93.5 µM
IC50 [13]: 465 µM
IC50 (HaCaT): 85.2 µM
IC50 [18]: 19.4 µM
IC50 at 48 h [20]: 188 µM
GI50 [21]: 15.9 µM
IC50 [27]: 485 µM
IC50 at 48 h [28]: 83.1 µM
IC50 [29]: 495 µM
IC50 (Capan-2): 26.5 µM
IC50 [32]: 421 µM
IC50 [33]: > 20 µM
Activity (MDA-MB-231 [37]): 58.45%
IC50 (HEK293): 12 µM
IC50 ([4]; lung adenocarcinoma cell line): 10.5 µM and 24.9 µM
IC50 at 24 h [39]: > 100 µM
